Experimental data taken from patent publication US12577242B2, “Pyrrolopyridine and imidazopyridine antiviral compounds” (KATHOLIEKE UNIVERSITEIT LEUVEN, priority 2020, dated 2026).

How the values were obtained:
[1] = tested on: classical swine fever virus (CSFV) strain Alfort 187; test: microbe, parasite or virus in culture; assay type: cell-based; details: PK-15, in Sus scrofa, 48 h
[2] = tested on: Bovine viral diarrhea (BVD) virus; test: Anti-BVDV CPE inhibition assay in MDBK cells; details: for SI (selectivity index, ratio of CC50 and EC50): CC50/EC50, MDBK cells, BVD virus
[3] = Cytotoxicity in MDBK cells (no BVD virus added); details: bovine, MDBK cells (Madin-Darby bovine kidney), no virus added
BVDV type 2 strain 1373 = details: 5 mg/kg i.v. 2x daily; for Animals showing signs of dehydration / Samples virus isolation positive for BVDV in total / Adverse side effects on serial complete blood cell counts or serum chemistry panels / Period in which leukopenia (<5000 leukocytes/μL) was seen / Adverse drug reactions on daily clinical monitoring / Clinical scores compared to calves receiving diluent only: 10 days; for Buffy coat samples virus isolation positive: Days 6-10, 20 samples per group; for Samples virus isolation positive for BVDV in total: all sample types and time points; for Nasal swab samples virus isolation positive: by Day 12, 28 samples per group; for Adverse side effects on serial complete blood cell counts or serum chemistry panels / Period in which leukopenia (<5000 leukocytes/μL) was seen / Adverse drug reactions on daily clinical monitoring: calves; for Adverse drug reactions on daily clinical monitoring: Day 0 to Day 28; for Clinical scores compared to calves receiving diluent only: composite of dehydration, appearance, appetite, diarrhea
BVDV type 1 strain SD1 = details: 2 mg/kg i.v. 3x daily
[4] = tested on: MDBK cells (Madin-Darby bovine kidney); test: Cytotoxicity in MDBK cells (no BVD virus added); details: MDBK cells, no virus, 50% toxic effects
[5] = Bovine viral diarrhea virus isolates and strains, MDBK, in Bos taurus, 96 h

Row | Compound | EC50 [1] | EC50 [2, 5] | SI (selectivity index, ratio of CC50 and EC50) [2] | CC50 at 4 days [3] | other results
1 | Fc1ccc(OC(F)(F)F)cc1-c1nc2ccn(Cn3nnc4ccccc43)cc-2n1 [CPD-40, 1-((2-(2-fluoro-5-(trifluoromethoxy)phenyl)-5H-imidazo[4,5-c]pyridin-5-yl)methyl)-1H-benzo[d][1,2,3]triazole] | 5900 nM | 89 ± 18 nM | 539 | 48000 nM | 
2 | Cc1c(-c2nc3ccn(Cc4cc(-c5cc(F)ccc5F)no4)cc-3n2)cnn1C [CPD-7, 3-(2,5-difluorophenyl)-5-((2-(1,5-dimethyl-1H-pyrazol-4-yl)-5H-imidazo[4,5-c]pyridin-5-yl)methyl)isoxazole] | 1300 ± 500 nM | 53 ± 25 nM | 4000 | 212000 nM | Animals showing signs of dehydration (BVDV type 2 strain 1373): None; Buffy coat samples virus isolation positive (BVDV type 2 strain 1373): 50%; Samples virus isolation positive for BVDV in total (BVDV type 2 strain 1373): 28 samples; Nasal swab samples virus isolation positive (BVDV type 2 strain 1373): 29%; Adverse side effects on serial complete blood cell counts or serum chemistry panels (BVDV type 2 strain 1373): No evidence of adverse side effects; Period in which leukopenia (<5000 leukocytes/μL) was seen (BVDV type 2 strain 1373): 6 to 12 days; Adverse drug reactions on daily clinical monitoring (BVDV type 2 strain 1373): No signs of adverse drug reactions were observed; Clinical scores compared to calves receiving diluent only (BVDV type 2 strain 1373): attenuated clinical scores
3 | Fc1ccccc1-c1cc2ccn(Cn3nnc4ccccc43)cc-2n1 [Compound I, 1-{[2-(2-fluorophenyl)-6H-pyrrolo[2,3-c]pyridin-6-yl]methyl}-1H-benzotriazole] |  | 9 ± 8 nM | 2444 | 22000 nM | Antibody titre of seroconverted calf on Day 14 (BVDV type 1 strain SD1; 7 days, Day 14): 16; Calves seroconverted (anti-BVDV neutralizing antibodies) by Day 14 (BVDV type 1 strain SD1; 7 days, Day 14 post challenge): 1 out of 5; Average anti-BVDV neutralising antibody titre on Day 28 (BVDV type 1 strain SD1; 7 days, Day 28): 64; Haematology and clinical chemistry versus control group (BVDV type 1 strain SD1; calves, 7 days, Day 0, 7, 14, 21, 28): did not reveal any difference between both treatment groups; Adverse drug reactions on daily clinical monitoring (BVDV type 1 strain SD1; calves, 7 days, Day 0 to Day 28): No signs of adverse drug reactions were observed; BVDV virus isolation from buffy coat samples during treatment (BVDV type 1 strain SD1; calves, Day 0 to Day 6): could not be detected
4 | OCc1ccccc1-c1cc2ccn(Cn3nnc4ccccc43)cc-2n1 [Compound V, [2-(6-((1H-Benzotriazol)-1-yl)methyl-6H-pyrrolo[2,3-c]pyridin-2-yl)-phenyl]-methanol] |  |  |  |  | EC50 ([2]; BVD virus approx. 100 TCID50, MDBK cells, four days, 50% inhibition of CPE): 81 ± 1 nM; CC50 [4]: > 50000 nM
5 | Cc1nc(Cn2ccc3nc(-c4ccccc4F)nc-3c2)sc1-c1ccccc1 [CPD-29, 2-((2-(2-fluorophenyl)-5H-imidazo[4,5-c]pyridin-5-yl)methyl)-4-methyl-5-phenylthiazole] | 2800 ± 1400 nM | 257 ± 107 nM | >195 | > 50000 nM | 
6 | Cc1ccc2nc(Cn3ccc4nc(-c5cnn(C)c5C)nc-4c3)sc2c1 [CPD-1, 2-((2-(1,5-dimethyl-1H-pyrazol-4-yl)-5H-imidazo[4,5-c]pyridin-5-yl)methyl)-6-methylbenzo[d]thiazole] | 300 ± 100 nM | 13 ± 5 nM | 17769 | 231000 nM | 
7 | COc1ccccc1-c1nc2ccn(Cc3nc4ccc(C)cc4s3)cc-2n1 [CPD-18, 2-((2-(2-methoxyphenyl)-5H-imidazo[4,5-c]pyridin-5-yl)methyl)-6-methylbenzo[d]thiazole] |  | 2 ± 1 nM | 10000 | 20000 nM | 
8 | N#Cc1ccc(-c2cc3cn(Cn4nnc5ccccc54)ccc-3n2)cc1 [Compound XXII, 4-{5-[(1H-benzotriazol-1-yl)methyl]-5H-pyrrolo[3,2-c]pyridin-2-yl}benzonitrile] |  | 7 ± 5 nM | 3000 | 21000 nM | 
9 | Cc1ccc2nc(Cn3ccc4nc(-c5cn(C)nc5C)nc-4c3)sc2c1 [CPD-10, 2-((2-(1,3-dimethyl-1H-pyrazol-4-yl)-5H-imidazo[4,5-c]pyridin-5-yl)methyl)-6-methylbenzo[d]thiazole] | 4300 ± 1900 nM | 80 ± 32 nM | 2888 | 231000 nM | Animals showing signs of dehydration (BVDV type 2 strain 1373): None; Buffy coat samples virus isolation positive (BVDV type 2 strain 1373): 55%; Samples virus isolation positive for BVDV in total (BVDV type 2 strain 1373): 32 samples; Nasal swab samples virus isolation positive (BVDV type 2 strain 1373): 43%; Adverse side effects on serial complete blood cell counts or serum chemistry panels (BVDV type 2 strain 1373): No evidence of adverse side effects; Period in which leukopenia (<5000 leukocytes/μL) was seen (BVDV type 2 strain 1373): 6 to 8 days; Adverse drug reactions on daily clinical monitoring (BVDV type 2 strain 1373): No signs of adverse drug reactions were observed; Clinical scores compared to calves receiving diluent only (BVDV type 2 strain 1373): attenuated clinical scores
